Measurements from ChEMBL document CHEMBL3046888, “Antiviral and Antifungal Activities of Some Naphthoquinones Isolated from the Roots of Lithospermum erythrorhizon” (J Pestic Sci, 1998).
The source made the active and inactive calls. No cut-off for these calls is given here.

Experiments:
Tobacco mosaic virus [1] = assay: Antiviral activity against Tobacco mosaic virus (TMV) in compound treated tobacco leaf assessed as growth inhibition at 5 mM at 25 degC for 3 days (16 hr in light) by half-leaf method; assay type: functional
Tobacco mosaic virus [2] = assay: Antiviral activity against Tobacco mosaic virus (TMV) in compound treated tobacco leaf assessed as growth inhibition at 25 mM at 25 degC for 3 days (16 hr in light) by half-leaf method; assay type: functional; design: dose or concentration left out as unconfirmed
Cladosporium herbarum [3] = assay: Antifungal activity against Cladosporium herbarum assessed as inhibition at 10 nmol in 8 mm disk; assay type: functional
Cladosporium herbarum [4] = assay: Antifungal activity against Cladosporium herbarum assessed as inhibition at 250 nmol in 8 mm disk; assay type: functional
Cladosporium herbarum [5] = assay: Antifungal activity against Cladosporium herbarum assessed as inhibition at 1250 nmol in 8 mm disk; assay type: functional
Cladosporium herbarum [6] = assay: Antifungal activity against Cladosporium herbarum assessed as inhibition at 50 nmol in 8 mm disk; assay type: functional
Nicotiana tabacum = assay: Phytotoxicity against Nicotiana tabacum (tobacco) plant at 25 mM; assay type: organism-based; conditions: in vivo, 25000 µM

SMILES | inhibition (Tobacco mosaic virus [1]) | inhibition (Tobacco mosaic virus [2]) [%] | inhibition at 5000 µM (Tobacco mosaic virus [1]) [%] | diameter of the inhibition zone (DIZ) (Cladosporium herbarum [3]) [mm] | diameter of the inhibition zone (DIZ) (Cladosporium herbarum [4]) [mm] | diameter of the inhibition zone (DIZ) (Cladosporium herbarum [5]) [mm] | diameter of the inhibition zone (DIZ) (Cladosporium herbarum [6]) [mm] | Activity (Nicotiana tabacum)
CCC(C)C(=O)O[C@H](CC=C(C)C)C1=CC(=O)c2c(O)ccc(O)c2C1=O (some centres undefined) | inactive | 86.1 |  |  |  |  |  | 
CC(C)=CC[C@@H](OC(=O)CC(C)C)C1=CC(=O)c2c(O)ccc(O)c2C1=O |  | 86.1 | 46 |  |  |  |  | 
CCC(=O)O[C@H](CC=C(C)C)C1=CC(=O)c2c(O)ccc(O)c2C1=O |  | 99.9 | 86.1 | 9.1 | 15.6 | 15.1 | 11.3 | 
CC(=O)O[C@H](CC=C(C)C)C1=CC(=O)c2c(O)ccc(O)c2C1=O [ACETYLSHIKONIN] |  | 78.7 | 73.2 | 10.1 | 13.3 | 13.4 | 13 | 
CC(C)=CC[C@@H](OC(=O)CC(C)(C)O)C1=CC(=O)c2c(O)ccc(O)c2C1=O [BETA-HYDROXYISOVALERYLSHIKONIN] |  |  | 44 | 9.1 | 16 | 17.6 | 13.8 | Toxic
CC(C)=CCCC1=CC(=O)c2c(O)ccc(O)c2C1=O [DEOXYSHIKONIN] |  | 87.3 | 66.4 |  |  |  |  | 
CC(C)=CC[C@@H](OC(=O)C=C(C)C)C1=CC(=O)c2c(O)ccc(O)c2C1=O [DIMETHYLACRYLSHIKONIN] |  | 70.2 | 26 |  |  |  |  | 
CC(C)=CC[C@@H](OC(=O)C(C)C)C1=CC(=O)c2c(O)ccc(O)c2C1=O [ISOBUTYLSHIKONIN] |  | 75.5 | 49.5 |  |  |  |  | 
CC(C)=CC[C@@H](O)C1=CC(=O)c2c(O)ccc(O)c2C1=O [SHIKONIN] | inactive |  |  | 9.9 | 14.1 | 15.9 | 13.4 | Toxic
